Tests used:
[1] = system: liver; conditions: relative to anti-gonadotropic properties; cited from earlier work
[2] = women; cited from earlier work
[3] = system: bone; conditions: postmenopausal women, very high oral dosages; cited from earlier work
[4] = system: bone; conditions: uniform active ingredient levels maintained in the blood; cited from earlier work
[5] = system: ovariectomized rats; experiment: Oral estrogenic action in ovariectomized rats; assay type: in vivo
Procedure: (§1) These release-processes were ended after 24 hours.

[6] = Blood levels of estradiol and estrone in ovariectomized rats after oral treatment; assay type: in vivo
Procedure: as §1

[7] = Plasma estrogen levels after one-time oral administration in postmenopausal women; assay type: in vivo
From the text: A “pool” of estrone sulfate is produced in the blood by EV. From the latter is released estrone by hydrolysis, a small proportion of which is in turn metabolized into estradiol. […] Estrone sulfate is in this case only the main metabolite of the estrogens that are produced from the sulfamate.

[8] = Procedure: In the examples below, the determination of the plasma levels of the estrogens with validated methods that are known and acknowledged in the art was performed.
[9] = system: endometrium; experiment: Growth effect on the endometrium after daily low-dose treatment; assay type: in vivo, postmenopausal women; conditions: daily 0.1 mg, at the end of treatment

C#C[C@]1(O)CC[C@H]2[C@@H]3CCc4cc(O)ccc4[C@H]3CC[C@@]21C [EE, ethinylestradiol]
estrogenic activity in the liver compared with orally administered natural estrogens [1]: 4–18 times

C[C@]12CC[C@@H]3c4ccc(O)cc4CC[C@H]3[C@@H]1C[C@@H](O)[C@@H]2O [estriol]
half-life [2]: 1.5 to 5.3 h
osteoprotective effect [3]: not osteoporectively effective
action in the bone after ovariectomy [4]: protective action in the bone

estradiol sulfamate
oral estrogenic action ([5]; oral treatment): strong oral estrogenic action
extension of the estrogen actions ([5]; very high dosages): did not result in an extension of the estrogen actions
blood levels of estradiol and estrone in comparison to estradiol in an equimolar dose [6]: higher and prolonged blood levels of estradiol and estrone
end of release processes (estradiol, estrone) [6]: ≤ 24 h
estrone levels 24 hours after administration ([7]; one-time oral 2 mg, 24 hours, postmenopausal women): higher after estradiol sulfamate than after EV
estrone sulfate levels 48 hours after administration ([7]; one-time oral 2 mg, 48 hours, postmenopausal women): higher after estradiol sulfamate than after EV
estradiol blood levels one week after treatment ([7]; one-time oral 2 mg, one week, postmenopausal women): clearly exceed the starting values
increase of estrone sulfate levels in plasma ([7]; one-time oral 2 mg, postmenopausal women (FIG. 1)): increase
increase of estrone levels in plasma ([7]; one-time oral 2 mg, postmenopausal women (FIG. 2)): persists for a long time
level of estrogen sulfate in comparison to EV ([7]; oral use (FIG. 4)): very low in comparison to EV
release (surface under the curve) of estrone ([7]; oral use, compared with EV (FIG. 4)): altogether higher release
average estrone sulfate levels ([7]; three postmenopausal women, one-time 2 mg, over 600 hours (FIG. 5)): clear increase compared to the starting values
estrone sulfate increase compared with transdermal therapy ([7]; women, oral): behave comparably
induced estrone sulfate levels relative to estradiol valerate ([7]; women, oral, at comparable estrone and estradiol levels in the blood): about 10 times lower
persistence of estrone sulfate increase in plasma after the last administration ([8]; daily 0.1 mg, after last of 14 administrations): had not yet disappeared even after six days
estrone levels in the plasma ([8]; in vivo): Relevant elevated estrone levels
estrone sulfate level at the end of the treatment ([8]; in vivo): clear increases
estrone sulfate level in the first 24 hours after beginning of treatment ([8]; in vivo): no clear increases
growth effect on the endometrium relative to the starting value [9]: considerable growth effect on the endometrium

From patent US7053077B1, “Use of biogenic estrogen sulfamates for hormone replacement therapy” (Schering AG, priority 1998, dated 2006)
